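Cultured in 96-well plates, cells were exposed to test compound for 48 hours across five concentrations. GI50 is the concentration that inhibits growth by half.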 The source made the active and inactive calls. No stated cut-off is given here; in the data, active = GI50 up to about 1.1 µM and inactive = higher.
Tests used:
Assay in all cases: NCI anticancer screen, dose series, 48 h
SK-MEL-2 = system: SK-MEL-2
OVCAR-8 = system: OVCAR-8
HCT-15 = system: HCT-15
RPMI-8226 = system: RPMI-8226
T47D = system: T47D
UO-31 = system: UO-31
Hs-578T = system: Hs-578T
A498 = system: A498
TK-10 = system: TK-10
MOLT-4 = system: MOLT-4
MDA-MB-435 = system: MDA-MB-435
SNB-19 = system: SNB-19
RXF 393 = system: RXF 393
M14 = system: M14
SF-295 = system: SF-295
HCT-116 = system: HCT-116
NCI-H460 = system: NCI-H460
EKVX = system: EKVX
IGROV-1 = system: IGROV-1
HCC 2998 = system: HCC 2998

Row | SMILES | GI50 (SK-MEL-2) | GI50 (OVCAR-8) | GI50 (HCT-15) | GI50 (RPMI-8226) | GI50 (T47D) | GI50 (UO-31) | GI50 (Hs-578T) | GI50 (A498) | GI50 (TK-10) | GI50 (MOLT-4) | GI50 (MDA-MB-435) | GI50 (SNB-19) | GI50 (RXF 393) | GI50 (M14) | GI50 (SF-295) | GI50 (HCT-116) | GI50 (NCI-H460) | GI50 (EKVX) | GI50 (IGROV-1) | GI50 (HCC 2998)
1 | CCOC(=O)[C@@]12C[C@](/C=C/OC)(O[Si](C)(C)C)[C@@]13c1cc(OC)c(OC)cc1CCN3C(=O)C2O (some centres not stated) | > 100 µM (inactive) | > 100 µM (inactive) | > 100 µM | > 100 µM (inactive) | > 100 µM (inactive) | > 100 µM (inactive) | 5.98 µM (inactive) | > 100 µM (inactive) | > 100 µM (inactive) | > 100 µM (inactive) | > 100 µM (inactive) | > 100 µM (inactive) | > 100 µM (inactive) | > 100 µM (inactive) | > 100 µM (inactive) | > 100 µM (inactive) | > 100 µM (inactive) | > 100 µM (inactive) | > 100 µM (inactive) | –
2 | CO[C@]12CC(=O)C3(C(C[C@H]4CC5CC=C6C[C@@H](OC(C)=O)CC[C@]6(OC(C)=O)C5C[C@@]43C)C1)C1C[C@H]3[C@@H]4CC=C5C[C@@H](OC(C)=O)CC[C@]5(OC(C)=O)[C@H]4CC[C@]3(C)C12 (some centres not stated) | 18.1 µM (inactive) | 24.1 µM (inactive) | 21.6 µM | 7.18 µM (inactive) | 10.9 µM (inactive) | 16.1 µM (inactive) | 32.2 µM (inactive) | 27.2 µM (inactive) | 43.2 µM (inactive) | 5.58 µM (inactive) | 18.8 µM (inactive) | 13.9 µM (inactive) | – | 17.5 µM (inactive) | 13.9 µM (inactive) | 6.55 µM (inactive) | 16.3 µM (inactive) | 21.4 µM (inactive) | 20.1 µM (inactive) | 17.8 µM (inactive)
3 | CCCCCCCCCCCCCCCCOc1ccc(/C=C/C2=[N+](CCCl)CCO2)cc1 | > 100 µM (inactive) | 42 µM (inactive) | > 100 µM | > 100 µM (inactive) | > 100 µM (inactive) | > 100 µM (inactive) | > 100 µM (inactive) | 73.1 µM (inactive) | 47.1 µM (inactive) | > 100 µM (inactive) | > 100 µM (inactive) | > 100 µM (inactive) | – | > 100 µM (inactive) | 55.8 µM (inactive) | 25.5 µM (inactive) | 90.4 µM (inactive) | > 100 µM (inactive) | 61.2 µM (inactive) | > 100 µM (inactive)
